Source: PMC7578299, “The antiviral effects of baloxavir marboxil against influenza A virus infection in ferrets” (Influenza and Other Respiratory Viruses, 2020)

Assays:
Assay type in all cases: in vitro ADME
[1] = Metabolic stability in liver microsomes, human; conditions: 2 μmol/L, pH 7.4
Procedure: (§1) Liver microsomes were prepared from ferrets, rats, dogs, and monkeys, as previously described. ^28 Human liver microsomes were obtained from Sekisui‐XenoTech, LLC and pooled (n = 15). Metabolic stability of the compounds in liver microsomes was tested in duplicate. Oseltamivir and cefcapene pivoxil were used as reference compounds. Liver microsomes at 0.5 mg/mL concentration (final volume of 0.2 mL) were incubated in Tris‐HCl buffer (pH 7.4), containing 50 mmol/L Tris‐HCl, 150 mmol/L KCl, 10 mmol/L MgCl2. The hydrolysis reaction was initiated by applying the test compound solution (final concentration 2 μmol/L). After incubation for 10, 20, and 30 minutes at 37°C, the hydrolysis was terminated by the addition of twofold volume of ice‐cold acetonitrile/methanol (1:1, v/v). Samples were centrifuged at 3000 rpm for 10 minutes prior to LC‐MS/MS analysis of compounds in the supernatants.

[2] = Metabolic stability in liver microsomes, rat; conditions: for % Residual in liver microsome: 2 μmol/L, pH 7.4
Procedure: as §1

[3] = Metabolic stability in liver microsomes, dog; conditions: for % Residual in liver microsome: 2 μmol/L, pH 7.4
Procedure: as §1

[4] = Metabolic stability in liver microsomes, ferret; conditions: for % Residual in liver microsome: ferret, 2 μmol/L, pH 7.4
Procedure: as §1

[5] = Metabolic stability in liver microsomes, monkey; conditions: for % Residual in liver microsome: monkey, 2 μmol/L, pH 7.4
Procedure: as §1

[6] = Metabolic stability test, control (microsome free); conditions: 2 μmol/L, pH 7.4
Procedure: as §1

Compound: CCOC(=O)C1=C[C@@H](OC(CC)CC)[C@H](NC(C)=O)[C@@H](N)C1 [OSP, oseltamivir phosphate]
- % Residual in liver microsome ([1]; 10 min): 89.8%
- % Residual in liver microsome ([1]; 20 min): 64.8%
- % Residual in liver microsome ([1]; 30 min): 49.7%
- % Residual in liver microsome ([2]; 10 min): 110.8%
- % Residual in liver microsome ([2]; 20 min): 119.2%
- % Residual in liver microsome ([2]; 30 min): 117.3%
- stability in liver microsomes (in words) ([2]; microsomes): stable
- % Residual in liver microsome ([3]; 10 min): 115.8%
- % Residual in liver microsome ([3]; 20 min): 109.6%
- % Residual in liver microsome ([3]; 30 min): 110.5%
- stability in liver microsomes (in words) ([3]; microsomes): stable
- % Residual in liver microsome ([4]; 10 min): 106.5%
- % Residual in liver microsome ([4]; 20 min): 107.2%
- % Residual in liver microsome ([4]; 30 min): 109.0%
- stability in liver microsomes (in words) ([4]; microsomes): stable
- % Residual in liver microsome ([5]; 10 min): 73.6%
- % Residual in liver microsome ([5]; 20 min): 59.1%
- % Residual in liver microsome ([5]; 30 min): 45.2%
- % Residual, Control (Microsome free) ([6]; 10 min): 106.4%
- % Residual, Control (Microsome free) ([6]; 20 min): 105.4%
- % Residual, Control (Microsome free) ([6]; 30 min): 111.3%

Compound: CC/C=C(\C(=O)N[C@@H]1C(=O)N2C(C(=O)OCOC(=O)C(C)(C)C)=C(COC(N)=O)CS[C@H]12)c1csc(N)n1.Cl [Cefcapene pivoxil, cefcapene pivoxil hydrochloride]
- % Residual in liver microsome Individual value [5]: 0.0%
